# Laboratory results taken from patent publication US10174038B2, “Compounds and methods for antiviral treatment” (Gilead Sciences, Inc., priority 2012, dated 2019).
# Test system: RSV strain A2
# Assay: RSV antiviral activity, in vitro cytoprotection assay in Hep2 cells
# Assay type: cell-based, Respiratory Syncytial Virus (RSV)
# Settings: 0.5 μM compound; RSV-induced cytopathic effect in Hep2 cells; % inhibition calculated from fitted 4-parameter dose response curve, normalized to 0% and 100%
# Description: Antiviral activity against RSV was determined using an in vitro cytoprotection assay in Hep2 cells. […] The method used was similar to methods previously described in published literature (Chapman et al., Antimicrob Agents Chemother. 2007, 51(9):3346-53.)
# Hep2 cells were obtained from ATCC (Manassas, Va.) and maintained in MEM media supplemented with 10% fetal bovine serum and penicillin/streptomycin. Cells were passaged twice a week and kept at subconfluent stage. Commercial stock of RSV strain A2 (Advanced Biotechnologies, Columbia, Md.) was titered before compound testing to determine the appropriate dilution of the virus stock that generated desirable cytopathic effect in Hep2 cells.
# For antiviral tests, Hep2 cells were seeded into 96-well plates 24 hours before the assay at a density of 3,000 cells/well. On a separate 96 well plate, compounds to be tested were serially diluted in cell culture media. Eight concentrations in 3-fold serial dilution increments were prepared for each tested compound and 100 uL/well of each dilution was transferred in duplicate onto plates with seeded Hep2 cells. Subsequently, appropriate dilution of virus stock previously determined by titration was prepared in cell culture media and 100 uL/well was added to test plates containing cells and serially diluted compounds. Each plate included three wells of infected untreated cells and three wells of uninfected cells that served as 0% and 100% virus inhibition control, respectively. Following the infection with RSV, testing plates were incubated for 4 days in a tissue culture incubator. After the incubation, RSV-induced cytopathic effect was determined using a Cell TiterGlo reagent (Promega, Madison, Wis.) followed by a luminescence read-out. The percentage inhibition was calculated for each tested concentration relative to the 0% and 100% inhibition controls and the EC50 value for each compound was determined by non-linear regression as a concentration inhibiting the RSV-induced cytopathic effect by 50%. Ribavirin (purchased from Sigma, St. Louis, Mo.) was used as a positive control for antiviral activity.
# Compounds were also tested for antiviral activity against RSV in Hep2 cells using a 384 well format. Compounds were diluted in DMSO using a 10-step serial dilution in 3-fold increments via automation in 4 adjacent replicates each. Eight compounds were tested per dilution plate. 0.4 uL of diluted compounds were then stamped via Biomek into 384-well plates (Nunc 142761 or 164730 w/lid 264616) containing 20 μL of media (Mediatech Inc. MEM supplemented with Glutamine, 10% FBS and Pen/Strep). DMSO and a suitable positive control compound, such as 80 μM GS-329467 or 10 μM 427346 was used for the 100% and 0% cell killing controls, respectively.
# Hep2 cells (1.0×10^5 cells/ml) were prepared as above in batch to at least 40 mls excess of the number of sample plates (8 mls cell mix per plate) and infected with vendor supplied (ABI) RSV strain A2 to arrive at an MOI of 1:1000 (virus:cell #) or 1:3000 (vol virus:cell vol). Immediately after addition of virus, the RSV infected Hep2 cell suspension was added to each stamped 384-well plate at 20 μl per well using a uFlow dispenser, giving a final volume of 40 μL/well, each with 2000 infected cells. The plates were then incubated for 5 days at 37° C. and 5% CO2. Following incubation, the plates were equilibrated to room temperature in a biosafety cabinet hood for 1.5 hrs and 40 μL of Cell-Titer Glo viability reagent (Promega) was added to each well via uFlow. Following a 10-20 minute incubation, the plates were read using an EnVision or Victor Luminescence plate reader (Perkin-Elmer). The data was then uploaded and analyzed on the Bioinformatics portal under the RSV Cell Infectivity and 8-plate EC50-Hep2-384 or 8-plate EC50-Hep2-Envision protocols. […]
row,SMILES,Percent inhibition at 0.5 μM [%]
1,Cc1cc(C2CC2)nc2cc([C@@H]3CCCCN3C(=O)c3ccc(Cl)c(F)c3NS(C)(=O)=O)nn12 [Compound 31],86

# Same assay, conditions: human respiratory syncytial virus, HEp-2, read-out: Percent inhibition at 0.5 μM
row,SMILES,inhibition at 0.5 µM [%]
1,CS(=O)(=O)Nc1ccc(Cl)cc1C(=O)N1CCCC[C@H]1c1cc2nc(N3CCC3)cc(NCCN)n2n1 [Compound 20],100

# Same assay, conditions: human respiratory syncytial virus, HEp-2; 0.5 μM compound; RSV-induced cytopathic effect in Hep2 cells; % inhibition calculated from fitted 4-parameter dose response curve, normalized to 0% and 100%; read-out: Percent inhibition at 0.5 μM
row,SMILES,inhibition at 0.5 µM [%]
1,Cc1ccc(NS(C)(=O)=O)c(C(=O)N2CCCC[C@H]2c2cc3nc(C)cc(C)n3n2)c1 [Compound 52],99
2,CS(=O)(=O)Nc1ccc(Cl)cc1C(=O)N1CCCC[C@H]1c1cc2nc(N3CC[C@@H](F)C3)cc(N3CCOCC3)n2n1 [Compound 93],56
3,Cc1ccc(NS(C)(=O)=O)c(C(=O)N2CCCC[C@H]2c2cc3nc(C)c(C)c(N4CCC4)n3n2)c1 [Compound 79],100
4,CC(C)OC(=O)Nc1ccc(Cl)cc1C(=O)N1CCCC[C@H]1c1cc2nc(N3CCC3)cc(N3CCN(C(=O)OC(C)(C)C)CC3)n2n1 [Compound 68],100
5,CS(=O)(=O)Nc1ccc(Cl)cc1C(=O)N1CCCC[C@H]1c1cc2nc(C3CC3)ccn2n1 [Compound 85],86
6,CC(=O)Nc1sccc1C(=O)N1CCCC[C@H]1c1cc2nc(N3CC[C@H](N)C3)c(C)cn2n1 [Compound 13],98
7,COc1ccc(C)cc1C(=O)N1CCCC[C@H]1c1cc2nc(N3CC[C@H](N)C3)c(C)cn2n1 [Compound 8],100
8,Cc1nc2cc([C@@H]3CCCCN3C(=O)c3cc(F)ccc3NS(C)(=O)=O)nn2c(C)c1C [Compound 58],89
9,Cc1cn2nc([C@@H]3CCCCN3C(=O)c3ccccc3OC(F)(F)F)cc2nc1N1CC[C@H](N)C1 [Compound 9],100
10,Cc1ccc(NS(C)(=O)=O)c(C(=O)N2CCCC[C@H]2c2cc3nc(C4CC4)c(C)cn3n2)c1 [Compound 73],100
11,CS(=O)(=O)Nc1ccc(Cl)cc1C(=O)N1CCCC[C@H]1c1cc2nc(N3CC(CO)C3)cc(N3CCOCC3)n2n1 [Compound 89],90
12,CCc1ccc(NS(C)(=O)=O)c(C(=O)N2CCCC[C@H]2c2cc3nc(C4CC4)cc(N4CCOCC4)n3n2)c1 [Compound 80],99
13,CNc1cc(N2CCOCC2)n2nc([C@@H]3CCCCN3C(=O)c3cc(Cl)ccc3NS(C)(=O)=O)cc2n1 [Compound 91],91
14,Cc1cn2nc([C@@H]3CCCCN3C(=O)c3cccc(C)c3O)cc2nc1N1CC[C@H](N)C1 [Compound 16],100
15,Cc1cn2nc([C@@H]3CCCCN3C(=O)C(NS(C)(=O)=O)c3ccccc3F)cc2nc1N1CC[C@H](N)C1 (stereo partly shown) [Compound 100],100
16,Cc1cn2nc([C@@H]3CCCCN3C(=O)c3cc(Cl)ccc3NC(=O)c3ccccc3)cc2nc1N1CC[C@H](N)C1 [Compound 62],100
17,CC1CN(c2cc(N3CCOCC3)n3nc([C@@H]4CCCCN4C(=O)c4cc(Cl)ccc4NS(C)(=O)=O)cc3n2)C1 [Compound 1],95
18,Cc1ccc(NS(C)(=O)=O)c(C(=O)N2CCCC[C@H]2c2cc3nc(C)c(C)cn3n2)c1 [Compound 81],100
19,Cc1cc(C2CC2)nc2cc([C@@H]3CCCCN3C(=O)c3c(NS(C)(=O)=O)cccc3C(F)(F)F)nn12 [Compound 47],99
20,Cc1cn2nc([C@@H]3CCCCN3C(=O)c3n[nH]c4ccc(F)cc34)cc2nc1N1CC[C@H](N)C1 [Compound 15],92
21,CC(=O)Nc1ccc(C)c(Br)c1C(=O)N1CCCC[C@H]1c1cc2nc(C)c(C)c(C)n2n1 [Compound 83],100
22,Cc1cc(C2CC2)nc2cc([C@@H]3CCCCN3C(=O)c3cc(F)cc(Cl)c3NS(C)(=O)=O)nn12 [Compound 74],97
23,Cc1ccc(C(=O)N2CCCC[C@H]2c2cc3nc(N4CC[C@H](N)C4)c(C)cn3n2)c(C)c1 [Compound 4],100
24,Cc1cn2nc([C@@H]3CCCCN3C(=O)C(NS(C)(=O)=O)c3ccccc3)cc2nc1N1CC[C@H](N)C1 (stereo partly shown) [Compound 101],100

row,SMILES,inhibition at 0.5 µM [%]
1,CN1CCN(c2cc(C3CC3)nc3cc([C@@H]4CCCCN4C(=O)c4cc(Cl)ccc4NS(C)(=O)=O)nn23)CC1 [Compound 59],92
2,Cc1cc(C2CC2)nc2cc([C@@H]3CCCCN3C(=O)c3cc(Cl)cc(Cl)c3NS(C)(=O)=O)nn12 [Compound 26],97
3,Cc1cc(NS(C)(=O)=O)c(C(=O)N2CCCC[C@H]2c2cc3nc(N4CC[C@H](N)C4)c(C)cn3n2)s1 [Compound 12],100
4,CNc1c(C)c(C)nc2cc([C@@H]3CCCCN3C(=O)c3cc(F)cc(Cl)c3NS(C)(=O)=O)nn12 [Compound 24],91
5,Cc1cn2nc([C@@H]3CCCCN3C(=O)c3cc(Cl)ccc3CN=[N+]=[N-])cc2nc1N1CC[C@H](N)C1 [Compound 35],100
6,Cc1ccc(NS(C)(=O)=O)c(C(=O)N2CCCC[C@H]2c2cc3nc(C)nc(C)n3n2)c1 [Compound 103],27
7,CS(=O)(=O)Nc1ccc(Cl)cc1C(=O)N1CCCC[C@H]1c1cc2nc(N3CC[C@@H](N)C3)cc(N3CCOCC3)n2n1 [Compound 95],99
8,Cc1cc(C2CC2)nc2cc([C@@H]3CCCCN3C(=O)c3cc(Cl)c(F)cc3NS(C)(=O)=O)nn12 [Compound 30],91
9,CS(=O)(=O)Nc1ccc(Cl)cc1C(=O)N1CCCC[C@H]1c1cn2nc(N3CC(O)C3)ccc2n1 [Compound 120],100
10,Cc1cn2nc([C@@H]3CCCCN3C(=O)c3cc(Cl)ccc3NS(C)(=O)=O)cc2nc1N[C@@H](C)CO [Compound 2],97
11,Cc1cc(N2CC[C@H](N)C2)nn2cc([C@@H]3CCCCN3C(=O)c3cc(Cl)ccc3NS(C)(=O)=O)nc12 [Compound 108],100
12,Cc1cn2nc([C@@H]3CCCCN3C(=O)c3cc(Cl)ccc3NS(C)(=O)=O)cc2nc1N1CCC12CNC2 [Compound 42],100
13,Cc1cn2nc([C@@H]3CCCCN3C(=O)c3cc(Cl)ccc3NS(C)(=O)=O)cc2nc1N1CCC1C (stereo partly shown) [Compound 40],100
14,Cc1cnc(N)c(C(=O)N2CCCC[C@H]2c2cc3nc(N4CC[C@H](N)C4)c(C)cn3n2)c1 [Compound 14],97
15,C#CC1CCN(c2nc3cc([C@@H]4CCCCN4C(=O)c4cc(Cl)ccc4NS(C)(=O)=O)nn3cc2C)C1 (stereo partly shown) [Compound 41],100
16,CS(=O)(=O)Nc1ccc(Cl)cc1C(=O)N1CCCC[C@H]1c1cn2nc(N3CCC3)ccc2n1 [Compound 106],100
17,CC(C)OC(=O)Nc1ccc(Cl)cc1C(=O)N1CCCC[C@H]1c1cc2nc(N3CCC3)cc(N3CCNCC3)n2n1 [Compound 69],99
18,Cc1cc(NS(C)(=O)=O)c(C(=O)N2CCCC[C@H]2c2cn3nc(N4CC[C@H](N)C4)c(C)cc3n2)s1 [Compound 114],100
19,Cc1cc(C)nc(C(=O)N2CCCC[C@H]2c2cc3nc(N4CC[C@H](N)C4)c(C)cn3n2)c1 [Compound 66],100
20,Cc1ccc(NS(C)(=O)=O)c(C(=O)N2CCCC[C@H]2c2nc3c(C)cc(C)nc3[nH]2)c1 [Compound 112],5
21,Cc1cn2nc([C@@H]3CCCCN3C(=O)c3cc(Cl)ccc3NS(C)(=O)=O)cc2nc1N1CC(F)(F)C1 [Compound 98],100
22,Cc1cn2nc([C@@H]3CCCCN3C(=O)c3cc(Cl)ccc3NS(=O)(=O)N(C)C)cc2nc1N1CC[C@H](N)C1 [Compound 61],100
23,Cc1cccc(NS(C)(=O)=O)c1C(=O)N1CCCC[C@H]1c1cc2nc(C3CC3)cc(C)n2n1 [Compound 45],100
